Test results reported in ChEMBL document CHEMBL4368861 (Medchemcomm, 2018).

test system: Trypanosoma brucei brucei; experiment: microbe, parasite or virus in culture; type: functional, organism-based; details: 427

| Structure (SMILES) | IC50 [nM] |
| --- | --- |
| Cc1ccc2[nH]c(C3CCCNC3)c(-c3ccncc3)c2c1 (configuration not stated) | 5150 |
| O=C(NCCc1ccccc1)c1cc(-c2cccnc2)cnc1NCC1CC1 | 6020 |
| N=C(N)c1ccc(-c2cc(-c3ccccc3)on2)cc1 | 3500 |
| c1ccc(-c2nc(NC3CCCCC3)cc(C3CC3)n2)nc1 | 3510 |
| CS(=O)(=O)c1ccc(C(=O)N(CC2CCCO2)c2nc3ccccc3s2)cc1[N+](=O)[O-] (configuration not stated) | 3490 |
| CN1CCN(S(=O)(=O)c2ccc(-c3ccc4c(Nc5ncc(Cl)cn5)ccnc4c3)cc2)CC1 | 5300 |
| CC(C)(C)c1cnc(NC(=O)c2ccccc2O)s1 | 5450 |
| CN(C)c1cc(NC(=O)Nc2ccccc2)c2ccccc2n1 | 3360 |
| COc1ccc(C2=NN(C3CCCCCC3)C(=O)[C@@H]3CC=CC[C@H]23)cc1OCCCCOc1ccc(-c2nnn[nH]2)cc1 | 500 |
| CC(C)n1nc(-c2cc3c(Cl)cccc3[nH]2)c2c(N)ncnc21 | 6100 |
| Cc1nn(C)c(C)c1NS(=O)(=O)c1c(Cl)cc(-c2ccnc(N3CCNCC3)c2)cc1Cl | 10 |
| Cc1ccc2c(c1C)NC(=O)C21NN=C(c2ccccc2)S1 (configuration not stated) | 4680 |
| COc1cccc(-n2nnnc2S(C)(=O)=O)c1 | 4120 |
| c1ccc(Oc2ccc(-c3cc(N4CCNCC4)[nH]n3)cc2)cc1 | 5100 |
| CC1=Nc2ccc(Cl)cc2C(O)(c2ccc(C)cc2)N1CCN1CCCCC1 (configuration not stated) | 4500 |
| CCN(CC)S(=O)(=O)c1ccc(C(=O)Nc2cc(C)nn2-c2nc(C)c(C)c(=O)[nH]2)cc1 | 4300 |
| N=C(N)Nc1ccc(-c2ccc(-c3ccc(NC(=N)N)cc3Cl)o2)c(Cl)c1 | 5700 |
| CO[C@@H](C(=O)N1Cc2[nH]nc(NC(=O)c3ccc(N4CCN(C)CC4)cc3)c2C1)c1ccccc1 [DANUSERTIB] | 1300 |

More lines, now with the values ahead:

| IC50 [nM] | Structure (SMILES) |
| --- | --- |
| 3290 | Nc1nccc2ccc(-c3ccc4nccn4c3)cc12 |
| 3220 | CC(Oc1ccccc1)C(=O)Nc1nc(-c2ccccn2)cs1 (configuration not stated) |
| 2990 | CCOC(=O)c1c(NC(=O)c2c(F)c(F)c(F)c(F)c2F)sc(C(N)=O)c1C |
| 2870 | O=C(Nc1nc(-c2ccccn2)cs1)c1cncn1-c1ccccc1 |
| 2720 | O=C(Nc1ccccc1)c1ccc(-c2cc3ccncc3cc2OC2CCNCC2)s1 |
| 2390 | OCCc1ccc(Nc2nccc(-c3nnc4ccccn34)n2)cc1 |
| 2380 | CN1CCC(NCc2cccc(-c3ccc(S(=O)(=O)NCc4ccccc4)cc3)c2)CC1 |
| 2300 | COc1ccc(C2=NN(C3CCCCCC3)C(=O)C2(C)C)cc1OCCCCOc1ccc(-c2nn[nH]n2)cc1 |
| 2070 | COc1ccc(OC)c(NCc2ccc3nc(N)nc(N)c3c2Cl)c1 |
| 1800 | c1ccc(Oc2ccc(-c3cc(C4CCOCC4)[nH]n3)cc2)cc1 |
| 1800 | Cc1nn2c(=O)c3c([nH]c2c1-c1ccc(Cl)cc1)CCCC3 |
| 1500 | CNC(=O)C1Cc2ccccc2N1C(=O)Cc1ccc(F)cc1 (configuration not stated) |
| 1500 | Cc1[nH]c2ccccc2c1C(c1cccs1)N1CCN(C)CC1 (configuration not stated) |
| 1450 | O=C(Nc1ccc(N2CCNCC2)cc1)c1ccn2ncc(-c3cccc(Cl)c3)c2n1 |
| 1200 | CCCCN(CCCC)c1c(C#N)cc(S(=O)(=O)Nc2ccccc2)cc1C#N |
| 1200 | Cc1noc(C)c1COc1cccc(C(=O)N=c2[nH]cccc2C)c1 |
| 1100 | COc1ccc(S(=O)(=O)Nc2ccc(CN3CCN(C(=O)c4cccc(C#N)c4)CC3)cc2)cc1 |

| IC50 [nM] | Structure (SMILES) |
| --- | --- |
| 1050 | Nc1nc2cc(-c3cncc(Oc4ccc(F)cc4)c3)ccc2[nH]1 |
| 1000 | CCC(=O)Nc1ccccc1C(=O)Nc1ccccn1 |
| 660 | O=C(Nc1ccc(C(F)(F)F)c(C(F)(F)F)c1)c1cc(Cl)ccc1O |
| 520 | N=C(N)Nc1ccc(-c2ccc(-c3ccc(N=C(N)N)c(Cl)c3)o2)cc1Cl |
| 500 | CS(=O)(=O)c1ccccc1C(=O)N(Cc1ccccc1)c1ccccc1 |
| 270 | O=C(NCCc1ccn(-c2ccccc2)n1)C1CCCCC1 |
| 270 | COc1ccc(C(=N)N)cc1-c1cn(-c2ccc(C(=N)N)cc2)nn1 |
| 240 | Cc1ccc(S(=O)(=O)Nc2ccc(CN3CCN(C(=O)c4cccc(C#N)c4)CC3)cc2)cc1 |
| 240 | NCCN(C(=O)c1ccc(Cl)cc1Cl)c1ccc(OCc2ccc(Cl)cc2)cc1 |
| 230 | O=C(NCc1nnc2n1CCCCC2)c1ccc(-c2ccc(F)cc2)o1 |
| 170 | CNC(=O)c1nn(C)c2c1C(C)(C)Cc1cnc(Nc3ccc(N4CCN(C)CC4)cc3)nc1-2 [MILCICLIB] |
| 140 | Cc1ncc(-c2ccnc(Nc3ccc(S(C)(=O)=O)cc3)n2)n1C(C)C [AZD-5438] |
| 130 | CCc1ccccc1-n1c(C)cn2c3c(=O)n(C(C(=O)OC)C(C)C)c(=O)n(C)c3nc12 (configuration not stated) |
| 130 | CC1CCCCN1C(=O)NCCc1coc(-c2ccc(F)cc2)n1 (configuration not stated) |
| 110 | O=C(Nc1ccc2c(c1)B(O)OC2)c1ccccc1C(F)(F)F |
| 20 | O=C(Nc1ccc(F)c(-c2nc3cc(-c4ccccc4)cnc3[nH]2)c1)N1CCCC1 |

test system: not listed separately; experiment: in vitro; details: human

| Structure (SMILES) | selectivity ratio |
| --- | --- |
| CCOC(=O)c1c(NC(=O)c2c(F)c(F)c(F)c(F)c2F)sc(C(N)=O)c1C | 2.2 |
| c1ccc(-c2nc(NC3CCCCC3)cc(C3CC3)n2)nc1 | 30 |
| CS(=O)(=O)c1ccc(C(=O)N(CC2CCCO2)c2nc3ccccc3s2)cc1[N+](=O)[O-] (configuration not stated) | 2.3 |
| CN1CCC(NCc2cccc(-c3ccc(S(=O)(=O)NCc4ccccc4)cc3)c2)CC1 | 59 |
| CN(C)c1cc(NC(=O)Nc2ccccc2)c2ccccc2n1 | 5.3 |
| CC(C)n1nc(-c2cc3c(Cl)cccc3[nH]2)c2c(N)ncnc21 | 5.8 |
| COc1ccc2nccc(NC(=O)C3CCN(CCc4ccc(Cl)cc4)CC3)c2n1 | 0.8 |
| COc1ccc(OC)c(NCc2ccc3nc(N)nc(N)c3c2Cl)c1 | 21 |
| OCCc1ccc(Nc2nccc(-c3nnc4ccccn34)n2)cc1 | 17 |
| Cc1cnc(N2CCN[C@@H](Cc3ccccc3)C2)nc1Oc1ccc(-n2ccnc2)cc1 | 4.9 |
| COC(=O)c1c(NC(=O)c2c(F)c(F)c(F)c(F)c2F)sc2c1CCCCC2 | 2.2 |
| CCCn1c(NC(=O)c2ccc3ccccc3n2)nc2ccccc21 | 3.5 |
| CC(Oc1ccccc1)C(=O)Nc1nc(-c2ccccn2)cs1 (configuration not stated) | 11 |
| COc1cc(-c2cc(-c3ccc(S(C)(=O)=O)cc3)cnc2N)ccc1O | 76 |
| Oc1c(I)cc(I)c2cccnc12 [IODOQUINOL] | 13 |

test system: Trypanosoma brucei brucei; experiment: Antitrypanosomal activity against Trypanosoma brucei brucei by pathogen box screening based assay; type: functional, organism-based; details: not given

| IC50 [nM] | Structure (SMILES) |
| --- | --- |
| 500 | Cc1nn2c(=O)c3c([nH]c2c1-c1ccc(Cl)cc1)CCCC3 |
